Experimental data reported in patent publication US20040214760A1, “Inhibition pf protein-phosphatases for the treatment of heart failure” (priority 2001, published 2004).

Legend:
[1] = test system: PP1; conditions: heat and acid stable proteins of skeletal muscle extract (Cohen et al., 1998); cited from earlier work
[2] = biological target: 32P-labelled phosphorylase a

Substance	inhibition of phosphatase (PP1) activity, dependence on phosphorylation state [1]	32P released from 32P-labelled phosphorylase a [2] [%]
inhibitor-1	inhibits phosphatase activity only when it has been phosphorylated by cAMP-dependent protein kinase	
purified catalytic subunit of PP1 from rabbit skeletal muscle (enzyme)		30
